{"source": "ChEMBL document CHEMBL5291721", "about": "“A preclinical secondary pharmacology resource illuminates target-adverse drug reaction associations of marketed drugs” (Nat Commun, 2023); note: assay procedure not described here", "key": {"[1]": {"target": "T1, Prostaglandin G/H synthase 1 (Rattus norvegicus, UniProt Q63921)", "T1 sequence (Q63921 whole entry)": "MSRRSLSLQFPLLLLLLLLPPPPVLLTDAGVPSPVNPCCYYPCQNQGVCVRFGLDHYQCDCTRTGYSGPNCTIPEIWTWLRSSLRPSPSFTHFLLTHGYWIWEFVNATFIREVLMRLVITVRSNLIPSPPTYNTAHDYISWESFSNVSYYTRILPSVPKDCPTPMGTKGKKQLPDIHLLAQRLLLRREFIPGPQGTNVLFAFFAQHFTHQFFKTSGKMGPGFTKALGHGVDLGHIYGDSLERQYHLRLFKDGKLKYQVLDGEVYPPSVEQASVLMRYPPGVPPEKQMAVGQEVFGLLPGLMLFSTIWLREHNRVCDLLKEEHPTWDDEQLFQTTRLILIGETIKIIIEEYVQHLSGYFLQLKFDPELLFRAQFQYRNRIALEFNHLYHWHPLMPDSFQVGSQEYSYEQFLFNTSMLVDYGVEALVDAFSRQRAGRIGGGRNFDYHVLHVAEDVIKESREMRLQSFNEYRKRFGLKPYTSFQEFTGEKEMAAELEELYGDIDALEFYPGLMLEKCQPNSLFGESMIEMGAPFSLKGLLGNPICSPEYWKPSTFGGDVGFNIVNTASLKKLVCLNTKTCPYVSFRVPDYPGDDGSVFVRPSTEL", "type": "functional"}, "[2]": {"target": "T2, Nuclear receptor subfamily 1 group I member 3 (Homo sapiens, UniProt Q14994)", "T2 sequence (Q14994 whole entry)": "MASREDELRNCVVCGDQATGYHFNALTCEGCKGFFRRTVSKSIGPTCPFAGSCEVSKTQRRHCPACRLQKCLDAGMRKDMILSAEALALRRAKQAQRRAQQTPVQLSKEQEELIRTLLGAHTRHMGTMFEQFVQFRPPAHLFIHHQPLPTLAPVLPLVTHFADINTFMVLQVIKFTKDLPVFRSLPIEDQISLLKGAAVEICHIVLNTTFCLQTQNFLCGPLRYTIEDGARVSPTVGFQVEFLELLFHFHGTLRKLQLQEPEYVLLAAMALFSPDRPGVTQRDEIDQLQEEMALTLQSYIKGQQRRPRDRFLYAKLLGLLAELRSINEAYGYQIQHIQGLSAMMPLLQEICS", "type": "functional"}, "[3]": {"target": "T3, Retinoic acid receptor alpha (Homo sapiens, UniProt P10276)", "T3 sequence (P10276 whole entry)": "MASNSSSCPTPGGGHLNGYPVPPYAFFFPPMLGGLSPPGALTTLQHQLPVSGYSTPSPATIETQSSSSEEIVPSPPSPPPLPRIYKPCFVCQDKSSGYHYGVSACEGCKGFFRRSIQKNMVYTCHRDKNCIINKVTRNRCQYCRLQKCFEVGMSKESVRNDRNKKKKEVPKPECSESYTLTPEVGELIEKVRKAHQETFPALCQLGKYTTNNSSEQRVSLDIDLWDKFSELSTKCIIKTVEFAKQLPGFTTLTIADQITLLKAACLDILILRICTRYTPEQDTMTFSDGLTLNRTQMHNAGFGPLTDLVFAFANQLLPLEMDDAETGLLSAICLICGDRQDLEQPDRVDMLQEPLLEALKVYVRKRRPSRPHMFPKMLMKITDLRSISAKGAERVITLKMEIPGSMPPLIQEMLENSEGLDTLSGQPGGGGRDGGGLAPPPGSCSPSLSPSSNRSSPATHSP", "type": "functional, cell-based"}, "[4]": {"target": "T4, Peroxisome proliferator-activated receptor alpha (Homo sapiens, UniProt Q07869)", "T4 sequence (Q07869 whole entry)": "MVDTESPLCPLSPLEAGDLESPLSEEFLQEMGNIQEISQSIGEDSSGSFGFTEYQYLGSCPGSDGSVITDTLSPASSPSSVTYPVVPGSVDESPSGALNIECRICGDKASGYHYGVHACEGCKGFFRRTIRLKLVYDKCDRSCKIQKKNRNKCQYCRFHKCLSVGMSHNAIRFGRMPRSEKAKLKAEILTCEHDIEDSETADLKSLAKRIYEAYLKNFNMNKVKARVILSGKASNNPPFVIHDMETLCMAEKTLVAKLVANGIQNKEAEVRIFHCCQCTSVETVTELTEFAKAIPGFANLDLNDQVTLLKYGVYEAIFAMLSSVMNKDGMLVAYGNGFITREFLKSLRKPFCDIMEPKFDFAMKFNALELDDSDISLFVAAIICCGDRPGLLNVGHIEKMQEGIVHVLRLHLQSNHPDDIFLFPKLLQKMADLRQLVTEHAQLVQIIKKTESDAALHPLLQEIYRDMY", "type": "functional"}, "[5]": {"target": "5-hydroxytryptamine receptor 5A (Homo sapiens, UniProt P47898)", "sequence (P47898 whole entry)": "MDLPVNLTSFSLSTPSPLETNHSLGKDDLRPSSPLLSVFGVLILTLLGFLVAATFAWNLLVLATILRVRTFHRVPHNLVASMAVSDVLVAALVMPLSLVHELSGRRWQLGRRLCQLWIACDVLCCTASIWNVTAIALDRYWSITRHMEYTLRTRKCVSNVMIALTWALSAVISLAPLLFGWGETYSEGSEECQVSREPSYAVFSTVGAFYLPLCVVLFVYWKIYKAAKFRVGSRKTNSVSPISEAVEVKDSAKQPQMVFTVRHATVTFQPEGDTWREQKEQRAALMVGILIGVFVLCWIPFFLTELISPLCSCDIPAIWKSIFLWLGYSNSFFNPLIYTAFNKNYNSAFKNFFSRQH"}, "[6]": {"target": "T5, Muscarinic acetylcholine receptor M5 (Homo sapiens, UniProt P08912)", "T5 sequence (P08912 whole entry)": "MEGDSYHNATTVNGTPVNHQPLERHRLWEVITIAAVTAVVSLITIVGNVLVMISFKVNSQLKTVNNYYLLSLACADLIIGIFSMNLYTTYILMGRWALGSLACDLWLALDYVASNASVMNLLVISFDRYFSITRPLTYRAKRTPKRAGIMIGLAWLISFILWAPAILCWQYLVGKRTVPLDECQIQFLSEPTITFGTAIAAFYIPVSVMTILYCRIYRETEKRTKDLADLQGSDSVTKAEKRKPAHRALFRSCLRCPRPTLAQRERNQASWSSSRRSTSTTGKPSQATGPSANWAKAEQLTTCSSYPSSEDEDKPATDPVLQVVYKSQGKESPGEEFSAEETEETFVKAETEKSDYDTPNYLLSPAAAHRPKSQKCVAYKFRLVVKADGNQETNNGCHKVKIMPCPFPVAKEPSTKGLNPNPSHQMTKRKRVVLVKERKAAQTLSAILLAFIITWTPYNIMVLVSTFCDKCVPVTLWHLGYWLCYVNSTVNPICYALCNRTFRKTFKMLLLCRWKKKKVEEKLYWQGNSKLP"}, "[7]": {"target": "T6, 5-hydroxytryptamine receptor 1A (Homo sapiens, UniProt P08908)", "T6 sequence (P08908 whole entry)": "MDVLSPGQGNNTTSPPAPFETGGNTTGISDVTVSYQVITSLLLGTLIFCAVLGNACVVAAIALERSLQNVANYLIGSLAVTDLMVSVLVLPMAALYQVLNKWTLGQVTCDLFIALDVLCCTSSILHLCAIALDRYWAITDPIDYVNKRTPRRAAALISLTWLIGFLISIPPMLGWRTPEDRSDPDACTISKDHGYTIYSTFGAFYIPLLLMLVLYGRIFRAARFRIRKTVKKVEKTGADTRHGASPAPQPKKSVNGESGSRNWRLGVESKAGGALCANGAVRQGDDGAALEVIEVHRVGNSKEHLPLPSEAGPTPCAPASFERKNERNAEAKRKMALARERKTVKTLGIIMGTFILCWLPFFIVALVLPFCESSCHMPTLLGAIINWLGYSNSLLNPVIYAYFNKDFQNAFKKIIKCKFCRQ"}}, "data": [{"smiles": "CCN(CC)CCn1c(=O)c(Cc2ccc(OC)cc2)nc2ccccc21", "note": "[CAROVERINE]", "values": [{"measurement": "AC50", "setting": "[1]", "value": 15.9, "unit": "µM"}]}, {"smiles": "CC(C)/N=c1\\cc2n(-c3ccc(Cl)cc3)c3ccccc3nc-2cc1Nc1ccc(Cl)cc1", "note": "[CLOFAZIMINE]", "values": [{"measurement": "AC50", "setting": "[2]", "value": "> 30", "unit": "µM"}, {"measurement": "AC50", "setting": "[3]", "value": "> 30", "unit": "µM"}, {"measurement": "AC50", "setting": "[4]", "value": "> 30", "unit": "µM"}]}, {"smiles": "CC(=O)SCC(Cc1ccccc1)C(=O)NCC(=O)OCc1ccccc1", "note": "(stereo not drawn) [RACECADOTRIL]", "values": [{"measurement": "AC50", "setting": "[4]", "value": 29, "unit": "µM"}]}, {"smiles": "OCCOCCN1CCN(C(c2ccccc2)c2ccc(Cl)cc2)CC1", "note": "(stereo not drawn) [HYDROXYZINE]", "values": [{"measurement": "AC50", "setting": "[5]", "value": 0.28, "unit": "µM"}]}, {"smiles": "CCOC(=O)[C@H](CCc1ccccc1)N[C@@H](C)C(=O)N1Cc2ccccc2C[C@H]1C(=O)O", "values": [{"measurement": "AC50", "setting": "[5]", "value": "> 10", "unit": "µM"}, {"measurement": "AC50", "setting": "[6]", "value": "> 10", "unit": "µM"}]}, {"smiles": "Cc1c(C)c2c(c(C)c1O)CCC(C)(COc1ccc(CC3SC(=O)NC3=O)cc1)O2", "note": "(stereo not drawn) [TROGLITAZONE]", "values": [{"measurement": "AC50", "setting": "[2]", "value": 3.4, "unit": "µM"}]}, {"smiles": "CC(=O)Oc1ccccc1C(=O)O", "note": "[ASPIRIN]", "values": [{"measurement": "AC50", "setting": "[7]", "value": "> 30", "unit": "µM"}]}, {"smiles": "CN(C)CCC=C1c2ccccc2CCc2ccccc21", "note": "[AMITRIPTYLINE]", "values": [{"measurement": "AC50", "setting": "[1]", "value": "> 30", "unit": "µM"}]}, {"smiles": "NCC1(CC(=O)O)CCCCC1", "note": "[GABAPENTIN]", "values": [{"measurement": "AC50", "setting": "[6]", "value": "> 10", "unit": "µM"}, {"measurement": "AC50", "setting": "[7]", "value": "> 30", "unit": "µM"}]}]}
